The values that follow come from article PMC10400981, “An expandable, modular de novo protein platform for precision redox engineering” (Proceedings of the National Academy of Sciences of the …, 2023).

Assay [1] deals with T1, m4D2.
T1 construct: monoheme redesign of 4D2
The experiment in a line: hemin titration of apo-m4D2 by UV/visible; nondenaturing MS ([…]). It counts as binding, synthetic construct.

Assay [2] addresses T2, 4D2.
T2 construct: single-chain de novo four-helix bundle, 112 amino acids after TEV cleavage
As to the kind of experiment: […] Å crystal structure (MAD); hemin titration by UV/visible; nondenaturing MS. It counts as binding, synthetic construct.

The target of assay [3] is T1, m4D2. The experiment in a line: binding titration; 2D/3D NMR of the complex. Set-up: species or system synthetic construct.

Structures are written as SMILES. Some results are limits rather than exact numbers.

As to `C=CC1=C(C)C2=Cc3c(C=C)c(C)c4[n]3[Fe][n]3c(c(C)c(CCC(=O)O)c3=CC3=NC(=C4)C(C)=C3CCC(=O)O)=CC1=N2` [heme B], the figures for the Kd in assay [1] and in assay [2] were 4.2 nM and below 5 nM, respectively. Regarding `CC1=C(C)C2=[N+]3C1=Cc1c(C)c(CCC(=O)O)c4[n]1[Fe-]31[n]3c(c(C)c(C)c3=CC3=[N+]1C(=C4)C(CCC(=O)O)=C3C)=C2` (stereo not drawn) [Fe(III) DMDPIX], the affinity in assay [3], expressed as Kd, was 25 nM.
